The text below walks through data of PubChem BioAssay (NCI).

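Exposure lasted 48 hours, with cells grown in 96-well plates and compounds tested at five concentrations. At the TGI there is no net growth.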 Bounds are passed on as bounds.

Test systems include SK-MEL-5 melanoma; SK-MEL-2 melanoma; MCF7 breast; SF-539 CNS; SF-268 CNS; SF-295 CNS; RXF 393 renal; SR leukemia; TK-10 renal; T-47D breast; NCI-H522 lung; MDA-N; SK-MEL-28 melanoma; HCT-116 colon; OVCAR-4 ovarian; SNB-19 CNS; SN12C renal.
What all share (test): DTP human tumour cell line panel, 48 h

With `COc1ccc(/C=C2\C[C@H]3[C@@H]4CCC5=C[C@@H](N6CCCC6)CC[C@]5(C)[C@H]4CC[C@]3(C)[C@H]2O)cc1`, the TGI in the assay on SK-MEL-5 melanoma worked out at 2.91 µM; in the assay with SK-MEL-2 melanoma it was 3.6 µM; in the assay with MCF7 breast it was 5.84 µM; in the assay on SF-539 CNS, 5.71 µM; in the assay with SF-268 CNS it was 11.6 µM; with SF-295 CNS, 5.52 µM. The TGI with RXF 393 renal is 3.29 µM; with SR leukemia it was 6.32 µM; in the assay with TK-10 renal, 7.44 µM; in the assay on T-47D breast, 14.1 µM; with NCI-H522 lung, 7.36 µM; in the assay on MDA-N, 3.73 µM. Besides, the TGI with SK-MEL-28 melanoma was determined as 3.66 µM; in the assay on HCT-116 colon, 5.45 µM; with OVCAR-4 ovarian it was 13.9 µM; with SNB-19 CNS it was 16.1 µM; in the assay with SN12C renal, 12.3 µM.
As to `CCOc1ccc(/C(O)=C/c2nc3ccccc3nc2/C=C(\O)c2ccc(OCC)cc2)cc1`, the TGI in the assay on SK-MEL-5 melanoma, with SK-MEL-2 melanoma, in the assay with MCF7 breast, in the assay with SF-539 CNS, in the assay on SF-268 CNS and in the assay with SF-295 CNS was greater than 100 µM each time. Also, the TGI was greater than 100 µM with RXF 393 renal; 26.6 µM with SR leukemia; greater than 100 µM in the assay with TK-10 renal; greater than 100 µM in the assay with T-47D breast; greater than 100 µM with NCI-H522 lung; greater than 100 µM with MDA-N. Besides, the TGI in the assay with SK-MEL-28 melanoma, with HCT-116 colon, with OVCAR-4 ovarian, in the assay with SNB-19 CNS and with SN12C renal was greater than 100 µM throughout.
For the compound `CN(NC(=O)CCCl)C1=NCCN1`, the TGI with SK-MEL-5 melanoma, in the assay with SK-MEL-2 melanoma, with MCF7 breast, in the assay on SF-539 CNS, in the assay with SF-268 CNS and in the assay on SF-295 CNS was greater than 100 µM each time. In addition, the TGI with RXF 393 renal, with SR leukemia, in the assay on TK-10 renal, in the assay on T-47D breast, with NCI-H522 lung and with MDA-N was greater than 100 µM in each case. The TGI in the assay on SK-MEL-28 melanoma, in the assay on HCT-116 colon, with OVCAR-4 ovarian, with SNB-19 CNS and with SN12C renal was greater than 100 µM throughout.
Consider `CCOC(=O)CCC(NC(=O)c1ccc(Oc2nc3ccc(C(F)(F)F)cc3nc2-c2ccccc2)cc1)C(=O)OCC` (stereo unspecified), for which the TGI was greater than 100 µM in the assay on SK-MEL-5 melanoma; greater than 65.8 µM in the assay with SK-MEL-2 melanoma; greater than 100 µM with MCF7 breast; greater than 34.3 µM in the assay with SF-539 CNS; 42.1 µM in the assay on SF-268 CNS; greater than 71.6 µM in the assay on SF-295 CNS. The TGI was 55.4 µM in the assay on RXF 393 renal; greater than 100 µM in the assay with SR leukemia; greater than 100 µM with TK-10 renal; greater than 100 µM in the assay on T-47D breast; greater than 100 µM in the assay with NCI-H522 lung; greater than 100 µM with MDA-N. The TGI in the assay with SK-MEL-28 melanoma is greater than 100 µM; in the assay with HCT-116 colon, greater than 100 µM; with OVCAR-4 ovarian, greater than 83 µM; in the assay on SNB-19 CNS it was greater than 100 µM; in the assay with SN12C renal it was greater than 100 µM.
In the case of `C[C@H](Nc1c(O)c2c(c(O)c1Cl)C(=O)C=CC2=O)C(=O)Nc1ccc([N+](=O)[O-])cc1`, the TGI with SK-MEL-5 melanoma is 3.14 µM; in the assay on SK-MEL-2 melanoma it was 9.1 µM; in the assay on MCF7 breast, 3.42 µM; with SF-539 CNS it was 4.2 µM; with SF-268 CNS, 5.79 µM; in the assay with SF-295 CNS, 7.54 µM. Besides, the TGI with RXF 393 renal was 3.04 µM; with SR leukemia it was greater than 10 µM; in the assay on TK-10 renal, 3.39 µM; in the assay on T-47D breast, greater than 10 µM; in the assay on NCI-H522 lung it was 6.65 µM; in the assay on MDA-N, 6.67 µM. For the same compound, the TGI was determined as 4.02 µM in the assay on SK-MEL-28 melanoma; 2.7 µM in the assay on HCT-116 colon; 3.14 µM in the assay on OVCAR-4 ovarian; 9.59 µM with SNB-19 CNS; 2.99 µM with SN12C renal.
Turning to `CC(C)C1(C)N=C(C(F)(F)F)c2cc(C(=O)C(F)(F)F)c3ccccc3c2N1` (stereo unspecified), the TGI worked out at 25.9 µM in the assay with SK-MEL-5 melanoma; 6.99 µM in the assay with SK-MEL-2 melanoma; 14.7 µM in the assay with MCF7 breast; 20.8 µM in the assay with SF-539 CNS; 13.7 µM with SF-268 CNS; 11.8 µM in the assay with SF-295 CNS. Besides, the total growth inhibition concentration (TGI) in the assay on RXF 393 renal is 10.1 µM; with SR leukemia, greater than 100 µM; with TK-10 renal it was 15.5 µM; in the assay on T-47D breast, 11.4 µM; with NCI-H522 lung, 7.16 µM; in the assay on MDA-N, 13 µM. The TGI was 20.8 µM in the assay on SK-MEL-28 melanoma; 11.8 µM in the assay on HCT-116 colon; 18.9 µM with OVCAR-4 ovarian; 16.6 µM with SNB-19 CNS; 11 µM with SN12C renal.
On to `O=C(NNC(=S)Nc1ccccc1)c1ccccc1Nc1ccccc1C(=O)NNC(=S)Nc1ccccc1`, for which the TGI with SK-MEL-5 melanoma is 58.2 µM; in the assay on SK-MEL-2 melanoma it was 47.1 µM; in the assay on MCF7 breast, 83.8 µM; in the assay with SF-539 CNS, 59.8 µM; in the assay with SF-268 CNS it was 60.6 µM; with SF-295 CNS, 57.6 µM. Further, the total growth inhibition concentration (TGI) is 45.4 µM with RXF 393 renal; greater than 100 µM in the assay with SR leukemia; 68.7 µM in the assay with TK-10 renal; greater than 100 µM in the assay on T-47D breast; 46 µM with NCI-H522 lung; greater than 100 µM in the assay with MDA-N. The TGI with SK-MEL-28 melanoma was greater than 100 µM; in the assay with HCT-116 colon it was 35.5 µM; with OVCAR-4 ovarian, greater than 100 µM; with SNB-19 CNS, 72.4 µM; in the assay on SN12C renal, 57.9 µM.
With `COc1cc(CCCOC(=O)/C=C/c2ccc(O)c(O)c2)cc(O)c1O`, the TGI in the assay on SK-MEL-5 melanoma was greater than 100 µM; in the assay with SK-MEL-2 melanoma, greater than 100 µM; in the assay with MCF7 breast it was 69.4 µM; with SF-539 CNS, 90.2 µM; in the assay with SF-268 CNS it was 84.5 µM; in the assay with SF-295 CNS, greater than 100 µM. Moreover, the concentration for total growth inhibition (TGI) is greater than 100 µM in the assay on RXF 393 renal; greater than 100 µM in the assay with SR leukemia; greater than 100 µM in the assay with TK-10 renal; 74.6 µM with T-47D breast; 29.2 µM with NCI-H522 lung; 53.7 µM in the assay with MDA-N. For the same compound, the TGI with SK-MEL-28 melanoma was greater than 100 µM; in the assay on HCT-116 colon, 34.9 µM; with OVCAR-4 ovarian, greater than 100 µM; with SNB-19 CNS, greater than 100 µM; with SN12C renal, greater than 100 µM.

A word on the TGI: it is the concentration giving total growth inhibition. A higher TGI goes with lower sensitivity of the cells.
